Results published in patent US8993330B2, “Composition for a mitotic remodeling of chromosomes” (Centre National de la Recherche Scientifique, priority 2005, dated 2015).

Assays:
sperm nuclei = experiment: DNA replication of sperm nuclei in Xenopus S-phase egg extract (32P-dCTP incorporation, TCA precipitation); assay type: biochemical; details: for replication rate of sperm chromatin: 300 μM TSA and 300 μM CTPB
Description: (§1) 5 μl samples were taken at different times and DNA replication was monitored by TCA precipitation of ^32PαdCTP incorporated into DNA.
Sperm chromatin was incubated in S-phase extract in the presence of 50 μg/ml ICRF193 at the beginning of the reaction or after 45 min (during the elongation phase). DNA replication was monitored by TCA precipitation of the replicated DNA.
(§2) Demembranated sperm nuclei were prepared and used as described in (Menut et al., 1999), and erythrocyte nuclei were purified from Xenopus blood as described. Nuclei were incubated in S-phase (1,000 nuclei/μl), or M-phase (CSF) extracts that were activated with 1 mM CaCl2. DNA synthesis was measured by ^32P-dCTP incorporation, as previously described (Menut et al., 1999).

erythrocyte nuclei = experiment: DNA replication of erythrocyte nuclei in Xenopus egg extracts (32P-dCTP incorporation, TCA precipitation); assay type: biochemical; details: for replication rate of erythrocyte nuclei: permeabilized erythrocyte nuclei in S-phase extract, 300 μM TSA, 600 μM CTPB or 300 μM AA
Description: FIG. 1B: Permeabilized erythrocyte nuclei were incubated in S-phase or M-phase extract for 45 minutes before CaCl2 activation to trigger S phase. 5 μl samples were taken at different times. DNA replication was monitored by TCA precipitation of ^32PαdCTP incorporated into DNA and expressed as the percentage replicated DNA compared to the total input DNA. Sperm nuclei incubated in S-phase extract were used as a control.
as §1
FIG. 5A: Erythrocyte chromatin was incubated either in M-phase extract and immediately driven into S phase by Ca^++, or in M-phase extract for 45 min before induction into S phase by Ca^++ in the absence or presence of ICRF. Control sperm chromatin in M-phase extracts induced to enter S phase by calcium is shown. The amount of nuclei was 1000 nuclei/μl egg extract for sperm nuclei, and 500 nuclei/μl egg extract for erythrocyte nuclei to keep the chromatin concentration constant.
as §2

[1] = system: erythrocyte or sperm nuclei; experiment: Chromosome condensation of nuclei in mitotic egg extract (Hoechst staining); assay type: biochemical, Xenopus; details: erythrocyte or sperm nuclei in M-phase extract; 50 μg/ml
Description: FIG. 5B: Demembranated erythrocyte nuclei or sperm nuclei were incubated in a mitotic egg extract in the presence or absence of 50 μg/ml of the topoisomerase II inhibitor ICRF193. DNA was stained with Hoechst dye for chromosome formation analysis.

chromatin loop domains = experiment: DNA loop size by maximum fluorescent halo technique (MFHT); assay type: biochemical, Xenopus
Description: FIG. 4D: Nuclei were recovered on coverslips and submitted to the maximum fluorescent halo technique (MFHT) for DNA loop size measurements (Material and Methods).
FIG. 7C: Sperm nuclei collected at different times during replication or following M-phase were recovered on coverslips and submitted to MFHT for DNA loop size measurements. Entry into mitosis was induced by incubating post-replicate embryo nuclei in M-phase extract in the presence or absence of ICRF.
Maximum Fluorescent Halo Radius (MFHR) were determined by treating non-fixed nuclei on coverslips. They were first dipped for 1 min in ice cold NP40 buffer (0.5% NP40, 10 mM MgCl2, 0.5 mM CaCl2, 50 mM Hepes pH 7.8) and then sequentially dipped for 30 s in a solution containing 0.2 mM MgCl2, 10 mM Tris (pH 7.4) with 0.5 M, 1 M, 1.5 M, 2 M NaCl. They were then incubated in 100 μg/ml ethidium bromide, 2 M NaCl and exposed for 1 min to short wave UV light before observation by fluorescence (Buongiorno-Nardelli et al., 1982). Halo and matrix diameters were estimated using a micrometrics slide. DNA loop size was calculated taking into account that the loop size is 2 fold the MFHR. The length of linear DNA was calculated using the correspondence of 1 μm to 2.3 kbp.

ORC2 = ORC2 recruitment to chromatin (chromatin purification, anti ORC2 immunoblot); assay type: biochemical, Xenopus
Description: FIG. 5C: Chromatin was purified and proteins analyzed by SDS gel electrophoresis as described in Material and Methods. Erythrocyte nuclei (500 nuclei/μl egg extract) or sperm nuclei (1000 nuclei/μl egg extract) were incubated in a mitotic egg extract, induced to enter S phase with calcium, in the presence (+) or absence (−) of ICRF 193. Chromatin was purified 30 min after calcium activation and analyzed by immunoblot with a Xenopus anti ORC2 antibody.
50 μl samples were diluted with 5 volumes of extract buffer (XB: 100 mM KCl, 0.1 mM CaCl2, 1 mM MgCl2, 10 mM KOH-Hepes pH 7.7, 50 mM sucrose) and pelleted by centrifugation at 7500 g for 12 min through a 0.7 M sucrose cushion. Nuclear pellets were resuspended in XB, 0.3% Triton X-100 and incubated for 5 min on ice. After a further 5,000 g centrifugation for 5 min, chromatin pellets were recovered and adjusted in Laemmli Buffer.

[2] = sperm nuclei in S-phase extract
[3] = inhibitor present during mitotic remodeling in M-phase extract, chromatin purified 30 min after calcium activation

Compound: CCCCCCCCCCCCCCCc1cccc(O)c1C(=O)O [AA, anacardic acid]
- replication of sperm nuclei (sperm nuclei; sperm nuclei in S-phase extract, 300 μM AA): strongly inhibited
- sensitivity of replication of erythrocyte nuclei remodeled in mitosis (erythrocyte nuclei; 45 min in M-phase extract, then S-phase extract containing 300 μM AA): as sensitive as sperm nuclei
- replication rate of erythrocyte nuclei (erythrocyte nuclei): did not further inhibit

Compound: CCCCCCCCCCCCCCCc1cccc(OCC)c1C(=O)Nc1ccc(Cl)c(C(F)(F)F)c1 [CTPB]
- reversal of AA inhibition of sperm nuclei replication (sperm nuclei; S-phase extract, prior incubation of 600 μM CTPB, 300 μM AA): reversed
- replication rate of sperm chromatin (sperm nuclei; [2]): no significant effect
- replication rate of erythrocyte nuclei (erythrocyte nuclei): failed to significantly affect

Compound: CC(/C=C/C(=O)NO)=C\[C@@H](C)C(=O)c1ccc(N(C)C)cc1 [TSA, trichostatin]
- replication rate of sperm chromatin (sperm nuclei; [2]): no significant effect
- replication rate of erythrocyte nuclei (erythrocyte nuclei): failed to significantly affect

Compound: ICRF 193
- chromosome condensation [1]: prevented chromosome condensation
- mitotic remodeling (loop size reduction) of post-replicative nuclei (chromatin loop domains; post-replicative embryonic nuclei in M-phase extract): blocked
- S-phase dependent increase in loop size (chromatin loop domains; sperm nuclei during replication in S phase, data not shown): prevented
- ORC recruitment (ORC2; inhibition of loop size remodeling, post-replicative embryonic nuclei and erythrocyte nuclei): decreases
- recruitment of ORC2 onto erythrocyte chromatin for the subsequent S-phase (ORC2; [3]): dramatically reduced
- recruitment of ORC2 onto sperm chromatin for the subsequent S-phase (ORC2; [3]): not
- DNA replication of sperm chromatin (sperm nuclei; S-phase extract, 50 μg/ml at the beginning of the reaction or after 45 min): does not interfere with DNA replication
- rate of replication of erythrocyte nuclei (erythrocyte nuclei; 45 min in M-Phase extract containing ICRF 193 before S phase induction): very low rate of replication
